In US8729131B2, “Agomelatine hydrochloride hydrate and preparation thereof” (Les Laboratoires Servier, priority 2010, dated 2014):
Where a name gives a salt, the structure may show the parent alone.

Key:
Format in all cases: physicochemical
[1] = Water solubility, HPLC external standard method
Description: Using external standard method, the product of Example 1 was tested with HPLC, compared with agomelatine crystalline form II.

[2] = Stability test (Chinese Pharmacopoeia): long-term test, closed container for 9 months
Description: (§1) The method for stability test as described in Chinese Pharmacopoeia was used in this test. • 1) Affecting factors test (in open container for 10 days): high temperature (60° C.), photostability under strong light (45001×), high humidity (92.5% RH at 25° C.) • 2) Accelerated test (in closed container for 6 months): at 40° C., humidity: 75% RH • 3) Long-term test (in closed container for 9 months): at 25° C., humidity: 60% RH

[3] = Stability test: product placed in an incubator at 40° C. for 30 days, determined with HPLC; conditions: 40° C. incubator
Description: Chromatographic conditions: C18 column; mobile phase: 10 mmol/L phosphate buffer (adjusted to pH 7.0 with NaOH): acetonitrile=2:7 (v/v); column temperature: 40° C.; detection wavelength: 220 nm; internal standard method was used on the products of Examples 1 and 2.
Solutions of the products at 1 mg/mL were prepared with the mobile phase. 10 μL of each solution was injected into the liquid chromatograph system and chromatograms were recorded. The results of the purity are shown in Examples 1 and 2.
Some of the product of Example 1 was placed in an incubator at 40° C. for 30 days to determine its stability with HPLC.

[4] = Stability test (Chinese Pharmacopoeia): accelerated test, closed container for 6 months
Description: as §1

[5] = Stability test (Chinese Pharmacopoeia): affecting factors test, open container for 10 days; conditions: open container 10 days; for Water: initial 6.10%; for C1: initial 11.86%; for purity: initial purity 99.72%
Description: as §1

[6] = High humidity (92.5% RH at 25° C.)

Question: Which results are given for `COc1ccc2cccc(CCNC(C)=O)c2c1` [AG crystalline form II, N-[2-(7-methoxy-1-naphthyl)pethyl]-acetamide, reference compound]?
Answer: Agomelatine content ([1]; In 0.1 N HCl): 0.30 mg/mL; Agomelatine content ([1]; In pH 7.0 buffer): 0.25 mg/mL; Agomelatine content ([1]; In water): 0.26 mg/mL

Question: For `COc1ccc2cccc(CCNC(C)=O)c2c1` [AG · HCl · H2O, agomelatine hydrochloride hydrate], which Water ([2]; 25° C., 60% RH, closed container 9 months, initial 6.10%) is on record?
Answer: Its Water is 6.00%.

Question: What about the C1 ([2]; 25° C., 60% RH, closed container 9 months, initial 11.86%) of the same compound?
Answer: The C1 was 11.53%.

Question: And the purity ([2]; 25° C., 60% RH, closed container 9 months, initial purity 99.72%)?
Answer: The purity was 99.74%.

Question: What about the “stability (in words)” value ([2]; long-term test) of the same compound?
Answer: The value was “stable”.

Question: What about the “stability with HPLC” value ([3]; Day 0) of the same compound?
Answer: The value was 99.6%.

Question: And the “stability with HPLC” value ([3]; Day 5)?
Answer: Its value is 99.5%.

Question: And the “stability with HPLC” value ([3]; Day 10)?
Answer: The value was 99.5%.

Question: What about the “stability with HPLC” value ([3]; Day 30) of the same compound?
Answer: The value was 99.5%.

Question: What about the Water ([4]; 40° C., 75% RH, closed container 6 months, initial 6.10%) of the same compound?
Answer: The Water was 6.02%.

Question: What about the C1 ([4]; 40° C., 75% RH, closed container 6 months, initial 11.86%) of the same compound?
Answer: The C1 was 11.65%.

Question: And the purity ([4]; 40° C., 75% RH, closed container 6 months, initial purity 99.72%)?
Answer: Its purity is 99.64%.

Question: What about the “stability (in words)” value ([4]; accelerated test) of the same compound?
Answer: Its value is “stable”.

Question: And the Agomelatine content ([1]; In 0.1 N HCl, hydrochloride hydrate)?
Answer: Its Agomelatine content is 0.40 mg/mL.

Question: What about the Agomelatine content ([1]; In pH 7.0 buffer, hydrochloride hydrate) of the same compound?
Answer: Its Agomelatine content is 0.30 mg/mL.

Question: And the Agomelatine content ([1]; In water, hydrochloride hydrate)?
Answer: The Agomelatine content was 0.30 mg/mL.

Question: What about the “solubility compared with agomelatine per se (in words)” value ([1]; in water, in 0.1N HCl, or in pH 7.0 buffer) of the same compound?
Answer: The value was “better solubility”.

Question: And the Water [5, 6]?
Answer: The Water was 6.03%.

Question: And the C1 [5, 6]?
Answer: The C1 was 11.63%.

Question: What about the purity [5, 6] of the same compound?
Answer: The purity was 99.73%.

Question: And the Water ([5]; High temperature (60° C.))?
Answer: Its Water is 1.00%.

Question: And the C1 ([5]; High temperature (60° C.))?
Answer: The C1 was 1.75%.

Question: And the purity ([5]; High temperature (60° C.))?
Answer: The purity was 99.51%.

Question: What about the Water ([5]; Strong light (45001×)) of the same compound?
Answer: The Water was 5.95%.

Question: What about the C1 ([5]; Strong light (45001×)) of the same compound?
Answer: The C1 was 11.48%.

Question: And the purity ([5]; Strong light (45001×))?
Answer: The purity was 99.67%.
